Test results: ChEMBL document CHEMBL4732049, “Anti-tuberculosis activity and its structure-activity relationship (SAR) studies of oxadiazole derivatives: A key review” (Eur J Med Chem, 2021)
≈ marks a conversion by molar mass, not a printed value.

Columns and labels:
[1] = system: Mycolicibacterium smegmatis; assay: Antimycobacterial activity against Mycobacterium smegmatis ATCC607 incubated for 16 to 24 hrs by microdilution liquid method; type: functional; conditions: time 16-24 hrs
[2] = system: Mycobacterium tuberculosis; assay: Antimycobacterial activity against Mycobacterium tuberculosis 209 incubated for 6 days by resazurin microtiter assay; type: functional; conditions: Mycobacterium tuberculosis, 209, 144 h; time 6 day; read-out: MIC100
[3] = system: Mycobacterium tuberculosis; assay: Antimycobacterial activity against Mycobacterium tuberculosis H37Rv ATCC 27294 incubated for 6 days by resazurin microtiter assay; type: functional; conditions: H37Rv ATCC 27294, 144 h, time 6 day, read-out: MIC100
[4] = system: Mycobacterium tuberculosis; assay: Antimycobacterial activity against Mycobacterium tuberculosis H37Ra incubated for 6 days by resazurin microtiter assay; type: functional; conditions: 144 h, time 6 day
[5] = system: Mycobacterium tuberculosis; assay: Antimycobacterial activity against Mycobacterium tuberculosis H37Rv incubated for 5 days by microplate alamar blue assay; type: functional; conditions: 120 h, time 5 day
[6] = system: Mycobacterium tuberculosis; assay: Antimycobacterial activity against Mycobacterium tuberculosis H37Rv; type: functional
[7] = system: Mycobacterium tuberculosis; assay: Bactericidal activity against Mycobacterium tuberculosis H37Rv at 8 ug/ml measured within 7 days; type: functional; conditions: dose 8 µg/ml; time day <=7
[8] = system: Mycobacterium tuberculosis; assay: Antimycobacterial activity against Mycobacterium tuberculosis H37Rv assessed as percentage inhibition at 250 ug/ml measured after 2 to 4 weeks by Lowensteine-Jensen method relative to control; type: functional; conditions: time 2-4 weeks
[9] = Toxicity in brine shrimp nauplii assessed as induction of lethality incubated for 24 hrs by counting method; conditions: artemia salina
[10] = system: Mycobacterium tuberculosis; assay: Antimycobacterial activity against Mycobacterium tuberculosis H37Ra ATCC 25177 by two fold dilution technique; type: functional
[11] = system: Mycobacterium tuberculosis; assay: Antimycobacterial activity against Mycobacterium tuberculosis H37Ra ATCC 25177; type: functional
Mycolicibacterium phlei = assay: Antimycobacterial activity against Mycobacterium phlei incubated for 5 days by microplate alamar blue assay; type: functional; conditions: 120 h, time 5 day
[12] = system: Mycobacterium tuberculosis; assay: Antimycobacterial activity against Mycobacterium tuberculosis H37Rv ATCC 27294 incubated for 5 days by microplate alamar blue assay; type: functional; conditions: H37Rv ATCC 27294, 120 h, time 5 day
[13] = system: Mycobacterium tuberculosis; assay: Antimycobacterial activity against Mycobacterium tuberculosis H37Rv ATCC 27294 by agar dilution method; type: functional
[14] = system: Mycobacterium tuberculosis; assay: Antimycobacterial activity against Mycobacterium tuberculosis; type: functional, organism-based
[15] = system: Mycobacterium tuberculosis; assay: Antimycobacterial activity against Mycobacterium tuberculosis H37Rv incubated for 7 days by microplate alamar blue assay; type: functional; conditions: 168 h, time 7 day
[16] = system: Mycobacterium tuberculosis; assay: Antimycobacterial activity against Mycobacterium tuberculosis H37Rv incubated for 5 days by two-fold serial dilution method; type: functional; conditions: 120 h, time 5 day
CHO-K1 = assay: Cytotoxicity against CHO-K1 cells incubated for 24 hrs by MTT assay; type: cell-based; conditions: Cricetulus griseus, CHO-K1, 24 h
[17] = Selectivity index, ratio of IC50 for CHO-K1 cells to MIC for Mycobacterium tuberculosis H37Rv; type: toxicity; conditions: hamster
[18] = system: Mycobacterium tuberculosis; assay: Antimycobacterial activity against Mycobacterium tuberculosis H37Rv ATCC 27294; type: functional

SMILES: S=c1[nH]nc(CN2CCOCC2)o1
- MIC [1]: 7.8 µg/mL (≈ 38.8 µM)

SMILES: O=C(Nc1nnc(-c2ccc(Cl)cc2)o1)c1cccc([N+](=O)[O-])c1
- MIC [2]: 7.8 µg/mL (≈ 22.6 µM)
- MIC [3]: 7.8 µg/mL (≈ 22.6 µM)
- MIC ([4]; read-out: MIC100): 7.8 µg/mL (≈ 22.6 µM)

SMILES: Cn1c(-c2cccc(Cl)c2Cl)nc2cc(-c3nc(-c4ccc(Cl)cc4)no3)ccc21
- MIC [5]: 1.6 µg/mL (≈ 3.51 µM)

SMILES: O=C(Nc1nnc(-c2ccc(Cl)cc2)o1)c1ccccc1
- MIC [2]: 31.2 µg/mL (≈ 104 µM)
- MIC [3]: 7.8 µg/mL (≈ 26 µM)

SMILES: O=C(Nc1nnc(-c2ccc(F)cc2)o1)c1ccc(Cl)cc1
- MIC [6]: 1.6 µg/mL (≈ 5.04 µM)
- Activity [7]: >90%

SMILES: O=C(Nc1nnc(-c2ccc(Cl)cc2)o1)c1ccc([N+](=O)[O-])[nH]1
- MIC [2]: 7.8 µg/mL (≈ 23.4 µM)
- MIC [3]: 31.2 µg/mL (≈ 93.6 µM)
- MIC ([4]; read-out: MIC): 7.8 µg/mL (≈ 23.4 µM)

SMILES: Cc1ccc2nc(Cl)c(CN(c3ccccc3)c3nnc(-c4cccnc4)o3)cc2c1
- inhibition at 250 µg/mL [8]: 96%
- LC50 at 24 h [9]: 26 µM

SMILES: Cc1ccc(-c2nnc(-c3c(C)nn(-c4ccccc4)c3Oc3cccc(F)c3)o2)cc1
- inhibition at 250 µg/mL [8]: > 90%

SMILES: Clc1nc2ccccc2cc1CN(c1ccccc1)c1nnc(-c2cccnc2)o1
- inhibition at 250 µg/mL [8]: 96%
- LC50 at 24 h [9]: 26 µM

SMILES: Cn1c(-c2cccc(Cl)c2F)nc2cc(-c3nc(-c4ccc(Cl)cc4)no3)ccc21
- MIC [5]: 1.6 µg/mL (≈ 3.64 µM)

SMILES: CC1(C)Cc2c(C#CCO)c(NC(=O)C(C)(C)C)cc(-c3nnc(-c4ccc(C(F)(F)F)cc4)o3)c2O1
- MIC [10]: 2 µg/mL (≈ 3.89 µM)
- IC90 [11]: 5.7 µM

SMILES: CN[C@@H]1[C@H](O[C@H]2[C@H](O[C@H]3[C@H](O)[C@@H](O)[C@H](N=C(N)N)[C@@H](O)[C@@H]3N=C(N)N)O[C@@H](C)[C@]2(O)C=O)O[C@@H](CO)[C@H](O)[C@H]1O [STREPTOMYCIN]
- MIC [5]: 6.25 µg/mL (≈ 10.7 µM)
- MIC [1]: 4 µg/mL (≈ 6.88 µM)
- MIC (Mycolicibacterium phlei): 6.25 µg/mL (≈ 10.7 µM)

SMILES: Fc1ccc(-c2nnc(-c3n[nH]cc3-c3ccc(Cl)cc3)o2)cc1
- MIC [12]: 25 µg/mL (≈ 73.4 µM)

SMILES: COc1ccc(-c2cc(-c3nnc(C)o3)nn2-c2ccc(NC(=O)c3ccc(F)cc3)cc2)cc1
- MIC [13]: > 50 µg/mL

SMILES: Cc1cccc(Oc2c(-c3nnc(-c4ccc(F)cc4)o3)c(C)nn2-c2ccccc2)c1
- inhibition at 250 µg/mL [8]: 91%

SMILES: CN1CCN(Cc2nnc(-c3ccc(Cl)cc3)o2)CC1
- MIC [12]: 3.12 µg/mL (≈ 10.7 µM)

SMILES: O=C(CCCC(F)(F)F)C1CCC(c2nc(-c3nccs3)no2)CC1 (stereo not given)
- IC50 [14]: 0.4 µM

SMILES: Clc1ccc2nc(Cl)c(CN(c3ccccc3)c3nnc(-c4cccnc4)o3)cc2c1
- inhibition at 250 µg/mL [8]: 96%
- LC50 at 24 h [9]: 26 µM

SMILES: CN1CCN(Cc2nnc(-c3ccccc3)o2)CC1
- MIC [12]: 1.6 µg/mL (≈ 6.19 µM)

SMILES: CO[C@H]1/C=C/O[C@@]2(C)Oc3c(C)c(O)c4c(O)c(c(/C=N/N5CCN(C)CC5)c(O)c4c3C2=O)NC(=O)/C(C)=C\C=C\[C@H](C)[C@H](O)[C@@H](C)[C@@H](O)[C@@H](C)[C@H](OC(C)=O)[C@@H]1C [RIFAMPIN]
- MIC [15]: 0.2 µg/mL (≈ 0.243 µM)
- inhibition at 250 µg/mL [8]: 98%

SMILES: c1csc(-c2nnc(Cc3cccc4ccccc34)o2)c1
- MIC [16]: 0.4 µM (≈ 0.117 µg/mL)

SMILES: Oc1ccc(-c2nnc(S)o2)cc1
- MIC [15]: 0.6 µg/mL (≈ 3.09 µM)
- IC50 (CHO-K1): 23.8 µg/mL (≈ 123 µM)
- selectivity ratio [17]: 39

SMILES: Cc1nn(-c2ccccc2)c(Oc2cccc(F)c2)c1-c1nnc(-c2ccccc2)o1
- inhibition at 250 µg/mL [8]: 91%

SMILES: S=c1[nH]nc(CN2CCSCC2)o1
- MIC [1]: 7.8 µg/mL (≈ 35.9 µM)

SMILES: O=c1[nH]nc(Cc2coc3cc(Cl)ccc23)o1
- MIC [5]: 3.12 µg/mL (≈ 12.5 µM)
- MIC (Mycolicibacterium phlei): 3.12 µg/mL (≈ 12.5 µM)

SMILES: CO[C@H]1O[C@H](Cc2nnc(C)o2)[C@H](OCc2ccccc2)[C@H](OCc2ccccc2)[C@H]1OCc1ccccc1
- MIC [18]: 60 µM (≈ 31.8 µg/mL)

SMILES: Cn1c(-c2cccc(Cl)c2Cl)nc2cc(-c3nc(-c4ccccc4Cl)no3)ccc21
- MIC [5]: 1.6 µg/mL (≈ 3.51 µM)

SMILES: N#Cc1ccc(-c2nnc(-c3n[nH]cc3-c3ccc(Cl)cc3)o2)cc1
- MIC [12]: 25 µg/mL (≈ 71.9 µM)

SMILES: O=C(Nc1nnc(-c2ccc(Cl)cc2)o1)c1ccc([N+](=O)[O-])s1
- MIC [2]: 7.8 µg/mL (≈ 22.2 µM)
- MIC [3]: 7.8 µg/mL (≈ 22.2 µM)
- MIC ([4]; read-out: MIC100): 7.8 µg/mL (≈ 22.2 µM)

SMILES: NC(=O)c1cnccn1 [PYRAZINAMIDE]
- MIC [5]: 3.12 µg/mL (≈ 25.4 µM)
- MIC [12]: 3.12 µg/mL (≈ 25.3 µM)
- MIC (Mycolicibacterium phlei): 3.12 µg/mL (≈ 25.4 µM)

SMILES: O=c1[nH]nc(Cc2coc3ccc(Cl)cc23)o1
- MIC [5]: 3.12 µg/mL (≈ 12.5 µM)
- MIC (Mycolicibacterium phlei): 3.12 µg/mL (≈ 12.5 µM)

SMILES: COc1ccc(-c2nnc(CN3CCN(C)CC3)o2)cc1
- MIC [12]: 3.12 µg/mL (≈ 10.8 µM)

SMILES: Cc1nnc(-c2cc(-c3ccc(Cl)cc3)n(-c3ccc(NC(=O)c4ccc(Cl)cc4)cc3)n2)o1
- MIC [13]: 3.13 µg/mL (≈ 6.38 µM)

SMILES: Cc1nnc(-c2cc(-c3ccc(Cl)cc3)n(-c3ccc(NC(=O)c4ccccc4Cl)cc3)n2)o1
- MIC [13]: 1.56 µg/mL (≈ 3.18 µM)

SMILES: CN1CCN(Cc2nnc(-c3ccc(O)cc3)o2)CC1
- MIC [12]: 3.12 µg/mL (≈ 11.4 µM)

SMILES: COc1ccc(-c2cc(-c3nnc(C)o3)nn2-c2ccc(NC(=O)c3ccccc3)cc2)cc1
- MIC [13]: > 50 µg/mL

SMILES: Cc1ccc(-c2nnc(-c3c(C)nn(-c4ccccc4)c3Oc3ccc(F)cc3)o2)cc1
- inhibition at 250 µg/mL [8]: > 90%

SMILES: Cc1nn(-c2ccccc2)c(Oc2cccc(C(F)(F)F)c2)c1-c1nnc(-c2ccc(Br)cc2)o1
- inhibition at 250 µg/mL [8]: 91%

SMILES: O=c1[nH]nc(Cc2coc3cc(Br)ccc23)o1
- MIC [5]: 1.56 µg/mL (≈ 5.29 µM)
- MIC (Mycolicibacterium phlei): 1.56 µg/mL (≈ 5.29 µM)

SMILES: O=C(Nc1nnc(-c2ccc(Cl)cc2)o1)c1ccc([N+](=O)[O-])o1
- MIC [2]: 7.8 µg/mL (≈ 23.3 µM)
- MIC [3]: 7.8 µg/mL (≈ 23.3 µM)
- MIC ([4]; read-out: MIC100): 7.8 µg/mL (≈ 23.3 µM)

SMILES: Cc1nn(-c2ccccc2)c(Oc2ccc(F)cc2)c1-c1nnc(-c2ccc(Br)cc2)o1
- inhibition at 250 µg/mL [8]: 91%
